Tests used:
[1] = Human microsome stability assay; type: in vitro ADME; conditions: human liver microsomes, 1 μM test compound, 37° C., NADPH regenerating system
Protocol: The human microsomal stability assay is used for early assessment of metabolic stability of a test compound in human liver microsomes.
Human liver microsomes (Cat. NO.: 452117, Corning, USA; Cat. NO.: H2610, Xenotech, USA) were preincubated with test compound for 10 minutes at 37° C. in 100 mM potassium phosphate buffer, pH 7.4. The reactions were initiated by adding NADPH regenerating system. The final incubation mixtures contained 1 μM test compound, 0.5 mg/mL liver microsomal protein, 1 mM MgCl2, 1 mM NADP, 1 unit/mL isocitric dehydrogenase and 6 mM isocitric acid in 100 mM potassium phosphate buffer, pH 7.4. After incubation times of 0, 3, 6, 9, 15 and 30 minutes at 37° C., 300 μL of cold acetonitrile (including internal standard) was added to 100 μL incubation mixture to terminate the reaction. Following precipitation and centrifugation, the amount of compound remaining in the samples were determined by LC-MS/MS. Controls of no NADPH regenerating system at zero and 30 minutes were also prepared and analyzed.

[2] = molecular target: hERG channel (Homo sapiens (Human), UniProt Q12809); assay: hERG channel inhibition assay (patch-clamp, CHO cells); type: cell-based; conditions: for IC50 / IC20: CHO hERG cells, whole-cell patch-clamp; for IC20: human, CHO cells stably expressing hERG channels; for hERG IC20/TLR7 IC50 / hERG IC20/TLR8 IC50 / hERG IC20/TLR9 IC50: safety ratio
Protocol: The hERG K^+ channels were cloned in humans and stably expressed in a CHO (Chinese hamster ovary) cell line. CHOhERG cells were used for patch-clamp (voltage-clamp, whole-cell) experiments. Cells were stimulated by a voltage pattern to activate hERG channels and conduct IKhERG currents (rapid delayed outward rectifier potassium current of the hERG channel). After the cells were stabilized for a few minutes, the amplitude and kinetics of IKhERG were recorded at a stimulation frequency of 0.1 Hz (6 bpm). Thereafter, the test compound was added to the preparation at increasing concentrations. For each concentration, an attempt was made to reach a steady-state effect, usually, this was achieved within 3-10 min at which time the next highest concentration was applied. The amplitude and kinetics of IKhERG are recorded in each concentration of the drug which were compared to the control values (taken as 100%). (references: Redfern W S, Carlsson L, Davis A S, Lynch W G, MacKenzie I, Palethorpe S, Siegl P K, Strang I, Sullivan A T, Wallis R, Camm A J, Hammond T G. 2003; Relationships between preclinical cardiac electrophysiology, clinical QT interval prolongation and torsade de pointes for a broad range of drugs: evidence for a provisional safety margin in drug development. Cardiovasc. Res. 58:32-45, Sanguinetti M C, Tristani-Firouzi M. 2006; hERG potassium channels and cardiac arrhythmia. Nature 440:463-469, Webster R, Leishman D, Walker D. 2002; Towards a drug concentration effect relationship for QT prolongation and torsades de pointes. Curr. Opin. Drug Discov. Devel. 5:116-26).

[3] = system: TLR7 and TLR8; assay: Human PBMC cell-based assay, TLR7 and TLR8; conditions: R848 at 1 μg/mL, overnight, cytokine readout, read-out: hPBMC/TLR78 IC50
Description: Unlike the HEK reporter cell lines, human peripheral blood mononuclear cell (PBMC) represents primary human immune cells in blood mainly consisting of lymphocytes, monocytes, and dendritic cells. These cells express TLR7, TLR8, or TLR9, and therefore are natural responders to respective ligand stimulation. Upon activation of these TLRs, PBMCs secrete similar cytokines and chemokines in vitro and in vivo, and therefore the in vitro potency of a TLR7/8/9 antagonist in human PBMC is readily translatable to its pharmacodynamics response in vivo.
Human peripheral blood mononuclear cells (PBMC) were isolated from freshly-drawn lithium-heparinized (Lithium Heparin Plus blood Collection tube, BD Vacutainer®) healthy donor whole blood by density gradient (Ficoll-Paque™ PLUS, GE Healthcare life Sciences). Briefly, 50 mL of blood was diluted with 25 mL PBS (without Ca^2+, Mg^2+) in a 50 mL conical tube with porous barrier (Leucosep tube, Greiner bio-one), where 15.5 mL Ficoll-Paque was under laid after spinning. Tubes were centrifuged for 20 minutes at 800×g (1946 rpm) with the brake in the off position, and PBMC were collected from the buffy coat. Cells were then washed twice in PBS, and red blood cells were lysed by suspension in 2 mL (Red Blood Cell Lysis Buffer, Alfa Aesar) for 5-10 minutes at room temperature. After a final wash in PBS, PBMC were resuspended at a final concentration of 2×10^6 cells/mL in RPMI-1640 media with GlutaMAX™ (Gibco) supplemented with 10% Fetal Bovine Serum (Sigma) and plated at 150 μL/well (3×10^5 cells/well) in tissue culture treated round bottom 96-well plates (Corning Incorporated). Antagonist compounds (compounds of this invention) solubilized and serial diluted in 100% DMSO were added in duplicate to cells to yield a final concentration of 1% DMSO (v/v). […] Cell culture supernatants were collected, and levels of various human cytokines were assessed by Luminex assay (ProcartaPlex™ Multiplex Immunoassay, Invitrogen) or ELISA procedure according to the manufacturer's recommended protocol (eBioscience, ThermoFisher Scientific). […]

hERG channel, sequence (Q12809 whole entry): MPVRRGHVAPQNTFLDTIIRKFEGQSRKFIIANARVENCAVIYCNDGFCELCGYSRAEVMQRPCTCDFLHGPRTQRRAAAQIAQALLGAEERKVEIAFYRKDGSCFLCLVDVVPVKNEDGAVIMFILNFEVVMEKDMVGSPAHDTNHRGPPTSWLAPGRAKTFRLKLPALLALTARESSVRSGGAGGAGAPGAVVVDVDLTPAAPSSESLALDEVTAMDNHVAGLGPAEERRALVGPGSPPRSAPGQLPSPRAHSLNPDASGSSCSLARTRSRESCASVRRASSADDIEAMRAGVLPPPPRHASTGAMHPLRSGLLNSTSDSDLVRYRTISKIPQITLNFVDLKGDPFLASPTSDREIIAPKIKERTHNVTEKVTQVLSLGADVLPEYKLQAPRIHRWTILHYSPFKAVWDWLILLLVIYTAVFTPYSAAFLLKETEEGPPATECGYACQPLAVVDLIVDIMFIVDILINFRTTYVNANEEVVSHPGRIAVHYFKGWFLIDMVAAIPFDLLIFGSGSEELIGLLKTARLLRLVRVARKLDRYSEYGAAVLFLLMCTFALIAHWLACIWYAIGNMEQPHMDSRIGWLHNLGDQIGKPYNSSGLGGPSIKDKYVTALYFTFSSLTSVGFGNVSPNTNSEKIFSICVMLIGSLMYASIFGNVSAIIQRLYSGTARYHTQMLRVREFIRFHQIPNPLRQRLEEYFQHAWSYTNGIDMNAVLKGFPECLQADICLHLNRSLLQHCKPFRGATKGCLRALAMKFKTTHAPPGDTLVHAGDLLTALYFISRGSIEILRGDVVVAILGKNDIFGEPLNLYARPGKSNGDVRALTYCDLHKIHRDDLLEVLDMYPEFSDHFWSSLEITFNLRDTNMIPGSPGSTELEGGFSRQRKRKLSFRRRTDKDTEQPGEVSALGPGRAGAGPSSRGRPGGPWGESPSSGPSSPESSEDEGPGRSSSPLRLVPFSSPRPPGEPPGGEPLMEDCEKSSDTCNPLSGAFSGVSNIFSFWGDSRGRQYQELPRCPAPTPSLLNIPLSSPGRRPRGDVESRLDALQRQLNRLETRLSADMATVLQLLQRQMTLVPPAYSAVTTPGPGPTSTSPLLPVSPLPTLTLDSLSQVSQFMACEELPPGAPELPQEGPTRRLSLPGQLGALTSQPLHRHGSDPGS

Compound	Clearance of Human microsome [1] [mL/min/kg]	IC50 [2] [µM]	IC20 [2] [µM]	hERG IC20/TLR7 IC50 [2]	hERG IC20/TLR8 IC50 [2]	hERG IC20/TLR9 IC50 [2]	IC50 [3] [µM]
CCc1cc(-c2cc(C)c3nccn3c2)cnc1N1CCC2(CCNCC2)CC1 [Example 22, 3-[3-ethyl-5-(8-methylimidazo[1,2-a]pyridin-6-yl)-2-pyridyl]-3,9-diazaspiro[5.5]undecane]	6.15						
CCc1nc(N2CCC(C)(N)CC2)ccc1-c1cc(C)c2nc(C)cn2c1 [Example 20, 1-[5-(2,8-dimethylimidazo[1,2-a]pyridin-6-yl)-6-ethyl-2-pyridyl]-4-methyl-piperidin-4-amine]		> 20	> 10	>1666.7	>636.9	>44.2	
COc1nc(N2CCC(N3CCNCC3)CC2)ccc1-c1cc(C)c2nccn2c1 [Example 25, 6-[2-methoxy-6-(4-piperazin-1-yl-1-piperidyl)-3-pyridyl]-8-methyl-imidazo[1,2-a]pyridine]	6.15	> 20	5.78	837.6	516.0	62.8	0.0045
CCc1nc(N2CCC(N3C[C@@H](N)[C@H](OC)C3)CC2)ccc1-c1cc(C)c2nccn2c1 [Example 15, (3R,4R)-1-[1-[6-ethyl-5-(8-methylimidazo[1,2-a]pyridin-6-yl)-2-pyridyl]-4-piperidyl]-4-methoxy-pyrrolidin-3-amine]	6.15	> 20	8.36	2144.2	2090	38.7	
Cc1cn2cc(-c3ccc(N4CCC(N)CC4)nc3C(C)C)cc(C)c2n1 [Example 4, 1-[5-(2,8-dimethylimidazo[1,2-a]pyridin-6-yl)-6-isopropyl-2-pyridyl]piperidin-4-amine]	8.25	> 10	4.21	471.9	1448.2	27.2	
Cc1cc(-c2cc(C)c3nccn3c2)cnc1N1CCC(N2CCN(C)CC2)CC1 [Example 9, 8-methyl-6-[5-methyl-6-[4-(4-methylpiperazin-1-yl)-1-piperidyl]-3-pyridyl]imidazo[1,2-a]pyridine]	7.20						0.008
CCc1nc(N2CCC(N3CC4(CNCCO4)C3)CC2)ccc1-c1cc(C)c2nccn2c1 [Example 14, 2-[1-[6-ethyl-5-(8-methylimidazo[1,2-a]pyridin-6-yl)-2-pyridyl]-4-piperidyl]-5-oxa-2,8-diazaspiro[3.5]nonane]	9.45						
Cc1cc(-c2ccc(N3CCC(N4CCNCC4)CC3)nc2C(F)F)cn2ccnc12 [Example 10, 6-[2-(difluoromethyl)-6-(4-piperazin-1-yl-1-piperidyl)-3-pyridyl]-8-methyl-imidazo[1,2-a]pyridine]	9.15						
Cc1cn2cc(-c3ccc(N4CCC(N5CCNCC5)CC4)nc3C(C)C)cc(C)c2n1 [Example 3, 6-[2-isopropyl-6-(4-piperazin-1-yl-1-piperidyl)-3-pyridyl]-2,8-dimethyl-imidazo[1,2-a]pyridine]	6.15						
Cc1cn2cc(-c3ccc(N4CCC(N5CC(C)(N)C5)CC4)nc3C(F)F)cc(C)c2n1 [Example 12, 1-[1-[6-(difluoromethyl)-5-(2,8-dimethylimidazo[1,2-a]pyridin-6-yl)-2-pyridyl]-4-piperidyl]-3-methyl-azetidin-3-amine]	6.15						0.016
Cc1cn2cc(-c3ccc(N4CCC(N5CCNCC5)CC4)nc3C(F)F)cc(C)c2n1 [Example 11, 6-[2-(difluoromethyl)-6-(4-piperazin-1-yl-1-piperidyl)-3-pyridyl]-2,8-dimethyl-imidazo[1,2-a]pyridine]	7.02						

From US20230279001A1, “IMIDAZO[1,2-A]PYRIDINE COMPOUNDS FOR THE TREATMENT OF AUTOIMMUNE DISEASE” (Hoffmann-La Roche Inc., priority 2020, published 2023)
